Entries after “also recorded” stand apart in the source; their conditions may differ.
Key:
Type in all cases: cell-based
Endothelial cells = assay: Atomic force microscopy cell stiffness (elastic modulus) after TNF-α treatment; conditions: cells on 55 kPa micropatterned PA gels
From the text: Atomic force microscopy (AFM, Bioscope DAFM-2X, Veeco) was used to validate DEP device 100 cell stiffness measurements (elastic modulus). A silicon nitride cantilever with 1 μm spherical tip (196 μm long, 23 μm wide, 600 nm thick, spring constant 0.06 N/m, Novascan) was used to indent each measured cell at three distinct locations. Elastic modulus was estimated by fitting the first 200 nm of the indentation curves to a Hertz model (Solon et al., “Fibroblast adaptation and stiffness matching to soft elastic substrates,” Biophys. J., vol. […], pages 4453-4461, 2007). Three measurements per cell were averaged and defined as the cell stiffness. At least six cells for each cell condition or cell type were measured.
Endothelial cells were cultured for 24 hours on micropatterned PA gels with stiffness of 55 kPa using 25 μm fibronectin circles as the microspots 8 to allow focal adhesion formation. The micropatterned PA gel was used in a DEP device 100 of the present invention provided with a microfluidic chamber 14. The quadrupole electrodes 4 were lowered with a single cell aligned within the cage of each quadrupole electrode 4. TNF-α was introduced to the microfluidic chamber 14 to expose the cells thereto. Cell stiffness or cell elastic modulus of the endothelial cell after TNF-α treatment was measured using AFM.

[1] = system: porcine aortic endothelial cells; assay: Atomic force microscopy cell stiffness (elastic modulus), cytochalasin D treatment; conditions: 200 nM cytochalasin D for 15 minutes
Experimental: (§1) Cells were released from tissue culture dishes with trypsin, seeded onto micropatterned PA gels, and 30 minutes was allowed for the cells to attach to the microspots 8. The medium was replaced and the PA gel was washed to remove unattached cells. Cells were then incubated on the micropatterned PA gels for 16-24 hours prior to taking measurements. Before the measurements, the cells were transferred into serum-free CO2-independent medium (Invitrogen™). In some samples, the actin cytoskeleton was disrupted with 200 nM cytochalasin D (Sigma Aldrich) for 15 minutes at room temperature in serum-free CO2-independent medium.
Atomic force microscopy (AFM, Bioscope DAFM-2X, Veeco) was used to validate DEP device 100 cell stiffness measurements (elastic modulus). A silicon nitride cantilever with 1 μm spherical tip (196 μm long, 23 μm wide, 600 nm thick, spring constant 0.06 N/m, Novascan) was used to indent each measured cell at three distinct locations. […] At least six cells for each cell condition or cell type were measured.
(§2) Adhered porcine aortic endothelial cells were treated with cytochalasin D to determine the stiffness changes induced by cytochalasin D using the DEP device 100 of the present invention. […] The calculated cell elastic modulus in cytochalasin treated cells was about 0.3 kPa, while the cell elastic modulus in the untreated cells was calculated to be about […] (FIG. 10C).

[2] = system: porcine aortic endothelial cells; assay: DEP device cell deformation (centroid movement) of adhered cells
Experimental: as §1
A micropatterned single cell array adhered to a PA gel was mounted on an inverted Olympus IX81 fluorescent microscope. The quadrupole DEP device 100 was attached to a micromanipulator (Eppendorf), and the electrodes were centered and lowered over a single adhered cell within approximately ˜10 μm of the cell. Electrical potential was applied using a function generator (BK Precision 3011B) set to 20 Vpp, 1 MHz. The positive function generator lead was diverted into two separate lines, each going to a resistance decade box, before connecting to diagonally opposing device electrodes as in FIG. 2D. With no extra resistance applied, both electrodes received the same voltage. Increasing resistance to one electrode decreased voltage to that electrode and therefore changed the magnitude of the DEP force as well as the force direction. […]
Bright-field images were taken every 0.5 seconds throughout each measurement. […] Cell deformation was quantified by measuring the distance between cell body centroid and the lower left corner of the cropped image. […]
as §2

| Compound | endothelial cell stiffness / elastic modulus (AFM), change compared with untreated cells (Endothelial cells) | calculated cell elastic modulus (AFM) [1] | cell stiffness / cell modulus (AFM), change compared with untreated cells [1] | cell centroid movement / deformation under dielectrophoretic force ([2]; 200 nM cytochalasin D for 15 minutes, compared with untreated adhered cells under the same DEP force) | cell centroid restoration to the center position ([2]; 200 nM cytochalasin D for 15 minutes, compared with untreated cells) | cell stiffness (DEP device) ([2]; cytochalasin D treatment, three different DEP forces) |
| --- | --- | --- | --- | --- | --- | --- |
| TNF-α | Increased; also recorded: higher | – | – | – | – | – |
| C=C1[C@@H](C)[C@H]2[C@H](Cc3ccccc3)NC(=O)[C@]23[C@H](OC(C)=O)/C=C/[C@@](C)(O)C(=O)[C@@H](C)C/C=C/[C@H]3[C@@H]1O [cytochalasin D] | – | about 0.3 kPa | decreased the stiffness; also recorded: lower | Untreated endothelial cells showed centroid deformations consistently smaller than treated endothelia cells; also recorded: increased | slower | decreases cell stiffness |
